Several values for one entry are separate records, joined by “and”; a condition that tells them apart may be missing. Equal values may be shown once. Read-outs that look alike come from different tables or passages of the source.
Assays:
[1] = system: Acinetobacter baumanii ATCC 19606, DSM 30007; experiment: Antibacterial microdilution broth method (EUCAST); type: cell-based; details: Acinetobacter baumannii
[2] = system: Staphylococcus aureus spp.aureus ATCC 29213, CCM 4223; experiment: Antibacterial microdilution broth method (EUCAST); type: cell-based; details: read-out: MIC SA
[3] = system: Candida tropicalis ATCC 750, CCM 8264; experiment: Antifungal microdilution broth method (EUCAST); type: cell-based; details: read-out: MIC CT
[4] = system: Candida albicans ATCC 24433, CCM 8320; experiment: Antifungal microdilution broth method (EUCAST); type: cell-based
[5] = system: Klebsiella pneumoniae ATCC 10031, CCM 4415; experiment: Antibacterial microdilution broth method (EUCAST)
[6] = system: Aspergillus fumigatus ATCC 204305; experiment: Antifungal microdilution broth method (EUCAST); type: cell-based; details: read-out: MIC AF
[7] = system: Candida parapsilosis ATCC 22019, CCM 8260; experiment: Antifungal microdilution broth method (EUCAST); type: cell-based; details: Lodderomyces parapsilosis
HepG2 cells = experiment: HepG2 cytotoxicity, CellTiter 96 (MTS) assay; type: cell-based, human; details: for IC50: Homo sapiens, HepG2, 24 h, read-out: HepG2 IC50; for SI, selectivity index: IC50 (HepG2)/MIC against Mtb H37Ra (in µM)
[8] = system: Candida krusei ATCC 6258, CCM 8271; experiment: Antifungal microdilution broth method (EUCAST); type: cell-based; details: Pichia kudriavzevii
[9] = system: Trichophyton interdigitale ATCC 9533, CCM 8377; experiment: Antifungal microdilution broth method (EUCAST); type: cell-based; details: read-out: MIC TI
[10] = system: Mycobacterium tuberculosis H37Ra ITM-M006710 (ATCC 9431); experiment: Microdilution broth, modified Microplate Alamar Blue Assay, whole cell growth inhibition; type: cell-based; details: Mycobacterium tuberculosis, read-out: MIC Mtb H37Ra
[11] = system: Mycobacterium aurum DSM 43999 (ATCC 23366); experiment: as above; type: cell-based; details: Mycolicibacterium aurum, read-out: MIC Mycobacterium aurum
[12] = system: Mycobacterium smegmatis DSM 43465 (ATCC 607); experiment: as above; type: cell-based; details: Mycolicibacterium smegmatis, read-out: MIC Mycobacterium smegmatis
[13] = system: Staphylococcus aureus methicillin resistant ATCC 43300, CCM 4750; experiment: microbe, parasite or virus in culture; type: cell-based; details: ATCC 43300 / CCM 4750 / MRSA, read-out: MIC MRSA
[14] = system: Pseudomonas aeruginosa ATCC 27853, CCM 3955; experiment: Antibacterial microdilution broth method (EUCAST); type: cell-based; details: read-out: MIC PA
[15] = system: Aspergillus flavus CCM 8363; experiment: Antifungal microdilution broth method (EUCAST); type: cell-based; details: read-out: MIC AFla
[16] = system: Staphylococcus epidermidis ATCC 12228, CCM 4418; experiment: Antibacterial microdilution broth method (EUCAST); type: cell-based; details: read-out: MIC SE
[17] = system: Enterococcus faecalis ATCC 29212, CCM 4224; experiment: Antibacterial microdilution broth method (EUCAST); type: cell-based; details: read-out: MIC EF
[18] = system: Absidia corymbifera CCM 8077 (Lichtheimia corymbifera); experiment: Antifungal microdilution broth method (EUCAST); type: cell-based; details: read-out: MIC AC
[19] = system: Escherichia coli ATCC 25922, CCM 3954; experiment: Antibacterial microdilution broth method (EUCAST); type: cell-based; details: read-out: MIC EC
[20] = in vitro, Middlebrook 7H9 broth, resazurin

CCCCNc1cnc(C(=O)Nc2cccc(C(F)(F)F)c2)cn1 [Compound 1b, 5-(Butylamino)-N-(3-(trifluoromethyl)phenyl)pyrazine-2-carboxamide]
14 and 13.6: SI, selectivity index (HepG2 cells)
3.13 µg/mL: MIC [10, 20] | MIC [12]
6.25 µg/mL: MIC [11]
9.24 µM: MIC ([10]; MIC converted to µM)
141 to 142 °C: melting point
126 µM: IC50 (HepG2 cells)
> 500 µM: MIC ([1]; 24h) | MIC ([1]; 48h) | MIC ([2]; 24 h) | MIC ([2]; 48 h) | MIC KP ([5]; 24h) | MIC KP ([5]; 48h) | MIC ([13]; 24 h) | MIC ([13]; 48 h) | MIC ([14]; 72 h) | MIC ([14]; 120 h) | MIC ([16]; 24 h) | MIC ([16]; 48 h) | MIC ([17]; 24 h) | MIC ([17]; 48 h) | MIC ([19]; 24 h) | MIC ([19]; 48 h)
> 125 µM: MIC ([3]; 24 h) | MIC ([3]; 48 h) | MIC ([4]; 24 h, read-out: MIC CA) | MIC ([4]; 48 h, read-out: MIC CA) | MIC ([6]; ATCC204305, 24 h) | MIC ([6]; ATCC204305, 48 h) | MIC ([7]; 24 h, read-out: MIC CP) | MIC ([7]; 48 h, read-out: MIC CP) | MIC ([8]; 24 h, read-out: MIC CK) | MIC ([8]; 48 h, read-out: MIC CK) | MIC ([9]; 72 h) | MIC ([9]; 120 h) | MIC ([15]; CCM8363, 24 h) | MIC ([15]; CCM8363, 48 h) | MIC ([18]; CCM8077, 24 h) | MIC ([18]; CCM8077, 48 h)

CCCNc1cnc(C(=O)Nc2cccc(O)c2)cn1 [Compound 2a, N-(3-hydroxyphenyl)-5-(propylamino)pyrazine-2-carboxamide]
7.81 µg/mL: MIC [10, 20]
194 to 195 °C: melting point
≥ 500 µg/mL: MIC [11] | MIC [12]
62.5 µM: MIC ([8]; 24 h, read-out: MIC CK) | MIC ([8]; 48 h, read-out: MIC CK) | MIC ([8]; read-out: MIC CK (Candida krusei))
> 100 µM: IC50 (HepG2 cells)
>3.5: SI, selectivity index (HepG2 cells)
> 125 µM: MIC ([1]; 24h) | MIC ([1]; 48h) | MIC ([2]; 24 h) | MIC ([2]; 48 h) | MIC ([3]; 24 h) | MIC ([3]; 48 h) | MIC ([4]; 24 h, read-out: MIC CA) | MIC ([4]; 48 h, read-out: MIC CA) | MIC ([4]; read-out: MIC CA (Candida albicans)) | MIC KP ([5]; 24h) | MIC KP ([5]; 48h) | MIC ([6]; ATCC204305, 24 h) | MIC ([6]; ATCC204305, 48 h) | MIC ([7]; 24 h, read-out: MIC CP) | MIC ([7]; 48 h, read-out: MIC CP) | MIC ([7]; read-out: MIC CP (Candida parapsilosis)) | MIC ([9]; 72 h) | MIC ([9]; 120 h) | MIC ([13]; 24 h) | MIC ([13]; 48 h) | MIC ([14]; 72 h) | MIC ([14]; 120 h) | MIC ([15]; CCM8363, 24 h) | MIC ([15]; CCM8363, 48 h) | MIC ([16]; 24 h) | MIC ([16]; 48 h) | MIC ([17]; 24 h) | MIC ([17]; 48 h) | MIC ([18]; CCM8077, 24 h) | MIC ([18]; CCM8077, 48 h) | MIC ([19]; 24 h) | MIC ([19]; 48 h)

CCCCCCCNc1cnc(C(=O)Nc2ccc(O)cc2)cn1 [Compound 3e]
> 250 µM: MIC ([3]; 24 h) | MIC ([3]; 48 h) | MIC ([4]; 24 h, read-out: MIC CA) | MIC ([4]; 48 h, read-out: MIC CA) | MIC ([6]; ATCC204305, 24 h) | MIC ([6]; ATCC204305, 48 h) | MIC ([7]; 24 h, read-out: MIC CP) | MIC ([7]; 48 h, read-out: MIC CP) | MIC ([8]; 24 h, read-out: MIC CK) | MIC ([8]; 48 h, read-out: MIC CK) | MIC ([9]; 72 h) | MIC ([9]; 120 h) | MIC ([15]; CCM8363, 24 h) | MIC ([15]; CCM8363, 48 h) | MIC ([18]; CCM8077, 24 h) | MIC ([18]; CCM8077, 48 h)
151.4 to 155.4 °C: melting point
31.2 µg/mL: MIC [12]
3.91 µg/mL: MIC [10, 20]
> 500 µM: MIC ([1]; 24h) | MIC ([1]; 48h) | MIC ([2]; 24 h) | MIC ([2]; 48 h) | MIC KP ([5]; 24h) | MIC KP ([5]; 48h) | MIC ([13]; 24 h) | MIC ([13]; 48 h) | MIC ([14]; 72 h) | MIC ([14]; 120 h) | MIC ([16]; 24 h) | MIC ([16]; 48 h) | MIC ([17]; 24 h) | MIC ([17]; 48 h) | MIC ([19]; 24 h) | MIC ([19]; 48 h)
44.8 µM: IC50 (HepG2 cells)
≥ 500 µg/mL: MIC [11]
3.76: SI, selectivity index (HepG2 cells)

— article PMC7180572, “5-Alkylamino-N-phenylpyrazine-2-carboxamides: Design, Preparation, and Antimycobacterial Evaluation” (Molecules, 2020)
